Source: PMC8019873, “Histone Deacetylase Inhibitory and Cytotoxic Activities of the Constituents from the Roots of Sophora Pachycarpa” (Iranian Journal of Pharmaceutical Research : IJPR, 2020)

Key:
HeLa cells = assay: AlamarBlue cytotoxic assay, HeLa; format: cell-based; conditions: human cervical HeLa cells, 48 h, read-out: Cytotoxicity IC50 HeLa
Method: (§1) The cells were seeded in 96-well microplates (1 × 10^4 cells/100 µL in each well) and cultivated for 24 h before the addition of test compounds. Three wells for each concentration were seeded and triplicate plates were used. […] Then, the cells were incubated with the different concentrations of the test compounds, positive control and cell culture medium alone as a negative control for 48 h. After that, 10 μL of alamarBlue® reagent was added to the attached cells and incubated for another four hour. The absorbance was measured at 600 nm using an ELISA microplate reader (Epoch; Bio Tek, Winooski, VT, USA), and the percent viability of the cells was investigated relative to the negative control that was exposed to the culture medium without compounds of the plant. Then, IC50 values were calculated by nonlinear regression analysis using GraphPad Prism (Version 6.0) software.

HCT116 cells = assay: AlamarBlue cytotoxic assay, HCT116; format: cell-based; conditions: HCT-116, human colon cancer HCT116 cells, 48 h, read-out: Cytotoxicity IC50 HCT116
Method: as §1

A2780 cells = assay: AlamarBlue cytotoxic assay, A2780; format: cell-based; conditions: Homo sapiens, ovarian cancer A2780 cells, 48 h, read-out: Cytotoxicity IC50 A2780
Method: as §1

A549 cells = assay: AlamarBlue cytotoxic assay, A549; format: cell-based; conditions: Homo sapiens, lung A549 cells, 48 h, read-out: Cytotoxicity IC50 A549
Method: as §1

HDAC [1] = assay: Whole-cell HDAC inhibition assay in HeLa cells; format: cell-based, human; conditions: 18 h, Boc-Lys(ε-Ac)-AMC substrate
Method: (§2) The cellular HDAC assay was based on an assay published by Marek et al. ([16]). HCT116 and HeLa human cancer cell lines were seeded in 96-well tissue culture microplates (1.5 × 10^4 cells/90 µL culture medium in each well). […] The test compounds were dissolved in dimethyl sulfoxide (the final amount of DMSO/well was maintained at 0.1% V/V) and their concentrations adjusted to 70, 40, 20, 5, 1 μM through dilution with the growth medium. The reaction was started by adding 10 µL of 3 mM Boc-Lys (ε-Ac)-AMC (Bachem, Switzerland) to each well at a final concentration of 0.3 mM. The cells were incubated with the Boc-Lys (ε-Ac)-AMC for 3 h under cell culture conditions. […] The final volume of the assay is 210 µL in all the wells. After that, the solution was transferred into a black 96-well microplate with flat clear bottom and fluorescence intensity was detected at an excitation of 360 nm and emission of 470 nm in a NOVO star microplate reader (BMGLabTech, Offenburg, Germany).

HDAC [2] = assay: Whole-cell HDAC inhibition assay in HCT116 cells; format: cell-based, human; conditions: HCT116, 18 h, Boc-Lys(ε-Ac)-AMC substrate
Method: as §2

[3] = test system: A2780, A549, HeLa, and HCT116 human cancer cell lines; assay: AlamarBlue cytotoxic assay, range over four cancer cell lines; format: cell-based; conditions: read-out: Cytotoxicity IC50 range against four cancer cell lines
Method: Compounds 1-5 were tested against HeLa, HCT116, A2780and A549 human cancer cell lines using a nonfluorescent substrate, AlamarBlue® (BioSource Invitrogen, Paisely, UK) and subjected to cell viability assay as described with some modification ([15]). The cell lines were cultured in RPMI-1640 medium (Cambrex Bioscience) supplemented with 10% fetal bovine serum (FBS), and 1% penicillin/streptomycin at 37 °C in an atmosphere of 95% […] and 5% CO2. The cells were seeded in 96-well microplates (1 × 10^4 cells/100 µL in each well) and cultivated for 24 h before the addition of test compounds. Three wells for each concentration were seeded and triplicate plates were used. The test compounds were dissolved in dimethyl sulfoxide (the final amount of DMSO per well was maintained at 0.1%V/V) and their concentrations adjusted to 100, 50, 25, 12.5, 6.25 μM through dilution with the growth medium. […] The absorbance was measured at 600 nm using an ELISA microplate reader (Epoch; Bio Tek, Winooski, VT, USA), and the percent viability of the cells was investigated relative to the negative control that was exposed to the culture medium without compounds of the plant. Then, IC50 values were calculated by nonlinear regression analysis using GraphPad Prism (Version 6.0) software.

pan-HDAC = assay: Whole-cell pan-HDAC inhibition, range over HCT116 and HeLa cells; format: cell-based, human; conditions: read-out: pan-HDAC inhibitory activity IC50 range
Method: as §2

SMILES	IC50 (HDAC [1])	IC50 (HDAC [2])	IC50 (pan-HDAC)	IC50 (HeLa cells)	IC50 (HCT116 cells)	IC50 (A2780 cells)	IC50 (A549 cells)	IC50 [3]
COc1c(C2COc3cc(O)c(CC=C(C)C)c(O)c3C2=O)ccc(O)c1CC=C(C)C (centres unmarked) [Compound 1, isosophoranone]	34.7 µM	26.5 µM		43.2 µM	39.3 µM	49.3 µM	53.5 µM	
Oc1ccc(C2Oc3cc(O)cc(O)c3C2O)cc1 (centres unmarked) [Compound 3, 2-(4-hydroxyphenyl)-2,3-dihydrobenzo[b]furan-3,4,6-triol]	> 70 µM	> 70 µM		69.4 µM	54 µM	> 100 µM	76.5 µM	
C=C(C)[C@H](CC=C(C)C)Cc1c(O)cc(O)c2c1O[C@H](c1ccc(O)cc1O)CC2=O [Compound 2, sophoraflavanone G]	> 70 µM	> 70 µM		44.2 µM	54.4 µM	65.5 µM	72.5 µM	

More lines, main results first:

IC50 (HDAC [1])	IC50 (HDAC [2])	IC50 (pan-HDAC)	SMILES	IC50 (HeLa cells)	IC50 (HCT116 cells)	IC50 (A2780 cells)	IC50 (A549 cells)	IC50 [3]
3.85 µM	0.08 µM	0.08 to 3.85 µM	C=C(C)C(CC=C(C)C)Cc1c2c(c(O)c3c1OC(c1ccc(O)cc1)C3c1cc(O)cc(O)c1)C(=O)CC(c1ccc(O)cc1O)O2 (centres unmarked) [Compound 4, alopecurone J]	9.97 µM	18 µM	21.9 µM	30.9 µM	9.97 to 30.9 µM
24.9 µM	22.2 µM		CC(C)=CCc1c2c(c(O)c3c1O[C@@H](c1ccc(O)cc1)[C@@H]3c1cc(O)cc(O)c1)C(=O)C[C@@H](c1ccc(O)cc1O)O2 [Compound 5, alopecurone P]	52.6 µM	48.4 µM	69 µM	54.9 µM	
